The values below come from publication PMC10830516 (Current Research in Structural Biology, 2024).

The test system of assay [1] is PMII. To be noted: cited from earlier work.
For assay [2], the target named is plasmepsin II (PMII) (Plasmodium falciparum, UniProt P46925). Nature of the assay: Inhibition of PMII hydrolysis of Hb-based fluorogenic peptide substrate. In kind it is biochemical, P. falciparum.
In assay [3] the target is plasmepsin X (PMX) (Plasmodium falciparum, UniProt Q8IAS0). Nature of the assay: Inhibition of PMX hydrolysis of Rh2N fluorogenic peptide substrate. To be noted: Ki against PMX, mature PMX, pH 5.5, 1 μM Rh2N substrate; Ki by Cheng-Prusoff. In kind it is biochemical, P. falciparum.

By IC50 is commonly meant the concentration at which inhibition is half-maximal. Broadly, the Ki is a dissociation constant, usually derived from enzyme kinetics or from competition with a known ligand.

Structures are written as SMILES. Square brackets hold non-standard residues; d marks the D form. Peptide text beside a SMILES is read from it. * marks the point of attachment. Sta = CC(C)C[C@H](N)[C@@H](O)CC(=O)O; Isovaleryl = CC(C)CC(=O)*

plasmepsin X (PMX), sequence (Q8IAS0 235-573): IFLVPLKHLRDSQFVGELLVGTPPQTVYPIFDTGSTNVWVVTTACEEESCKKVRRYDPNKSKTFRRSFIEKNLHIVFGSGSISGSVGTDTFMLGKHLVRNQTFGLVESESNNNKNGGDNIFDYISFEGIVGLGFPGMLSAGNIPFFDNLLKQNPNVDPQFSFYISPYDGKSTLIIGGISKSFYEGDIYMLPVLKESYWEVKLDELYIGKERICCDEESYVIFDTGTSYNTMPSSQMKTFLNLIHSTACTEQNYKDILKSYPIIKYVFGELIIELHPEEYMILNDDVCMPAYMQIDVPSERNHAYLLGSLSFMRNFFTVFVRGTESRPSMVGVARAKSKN
plasmepsin II (PMII), sequence (P46925 125-453): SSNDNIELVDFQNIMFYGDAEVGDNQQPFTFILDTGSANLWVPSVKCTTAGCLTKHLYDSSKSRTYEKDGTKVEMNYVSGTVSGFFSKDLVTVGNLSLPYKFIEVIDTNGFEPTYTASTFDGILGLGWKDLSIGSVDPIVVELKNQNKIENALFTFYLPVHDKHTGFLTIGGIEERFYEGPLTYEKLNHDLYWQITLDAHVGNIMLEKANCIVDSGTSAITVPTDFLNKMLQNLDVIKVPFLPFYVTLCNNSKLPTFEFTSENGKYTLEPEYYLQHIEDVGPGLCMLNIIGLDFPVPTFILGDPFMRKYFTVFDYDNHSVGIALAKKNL

On to `CCCCCc1ccc(C(=O)N(Cc2ccc(-c3ccc(C(=O)N4CCCCC4)cc3)cc2)C2CCN(Cc3ccccn3)CC2)nc1` [2IGX], for which, in assay [1] (achiral inhibitors, ref Boss et al., 2006, Prade et al., 2005), the half-maximal inhibitory concentration (IC50) is 54 nM. For `CC(C)(C)NC(=O)[C@@H]1CN(Cc2cccnc2)CCN1C[C@@H](O)C[C@@H](Cc1ccccc1)C(=O)N[C@H]1c2ccccc2C[C@H]1O` [IDV, Indinavir], in assay [2], the Ki is 2400 nM. Take `Cc1cccc(C)c1OCC(=O)N[C@@H](Cc1ccccc1)[C@@H](O)C[C@H](Cc1ccccc1)NC(=O)[C@H](C(C)C)N1CCCNC1=O` [LPV, Lopinavir]: the values for the inhibition constant Ki in assay [2] and in assay [3] were 700 nM and 14000 nM, respectively. `Cc1c(O)cccc1C(=O)N[C@@H](CSc1ccccc1)[C@H](O)CN1C[C@H]2CCCC[C@H]2C[C@H]1C(=O)NC(C)(C)C` [NFV, Nelfinavir]: the figures for the Ki in assay [2] and in assay [3] were 1400 nM and 60000 nM, respectively. As to `CC(C)(C)NC(=O)[C@@H]1C[C@@H]2CCCC[C@@H]2CN1C[C@@H](O)[C@H](Cc1ccccc1)NC(=O)[C@H](CC(N)=O)NC(=O)c1ccc2ccccc2n1` [SQV, Saquinavir], the inhibition constant (Ki) came out at 1000 nM in assay [2] and 44000 nM in assay [3]. As for `CC(C)CC(=O)N[C@H](C(=O)N[C@H](C(=O)N[C@@H](CC(C)C)[C@@H](O)CC(=O)N[C@@H](C)C(=O)N[C@@H](CC(C)C)[C@@H](O)CC(=O)O)C(C)C)C(C)C` [pepstatin A] (Isovaleryl-VV[Sta]A[Sta]-OH), the Ki in assay [1] (PMII complex PDB ID 1XDH, ref Silva et al., 1996) was 0.006 nM.
